Experiment [1] has as its target T1, CXCR3 (Homo sapiens, UniProt P49682).
T1 sequence (P49682 1-368): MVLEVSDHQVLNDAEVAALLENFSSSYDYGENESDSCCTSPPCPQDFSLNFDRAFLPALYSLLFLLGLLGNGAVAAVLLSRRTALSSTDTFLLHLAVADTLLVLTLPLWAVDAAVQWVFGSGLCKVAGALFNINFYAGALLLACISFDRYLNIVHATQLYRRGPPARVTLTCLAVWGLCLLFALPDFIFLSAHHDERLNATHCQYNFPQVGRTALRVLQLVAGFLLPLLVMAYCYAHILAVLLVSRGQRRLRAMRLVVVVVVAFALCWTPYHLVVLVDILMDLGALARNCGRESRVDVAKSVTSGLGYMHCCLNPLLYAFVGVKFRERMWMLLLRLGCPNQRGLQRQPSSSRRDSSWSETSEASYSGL
In words: Chemotaxis assay IP10, L1.2 recombinant cells expressing hCXCR3. Format: cell-based. The settings on record: L1.2 hCXCR3 cells, IP10 around 0.3 nM, 4 hours. On the procedure:
Human CXCR3 cDNA was amplified by PCR from a human cells cDNA library (Clontech) and subcloned into pcDNA3.1 (Invitrogen). Murine pre-B L1.2 cells were transfected with hCXCR3-pcDNA3.1 and were grown at 37° C., 5% CO2 in RPMI 1640 medium (Invitrogen, USA) supplemented with 5% heat inactivated fetal calf serum (Cancerra, Australia), 2 mM glutamine (Invitrogen), 50 units ml−1 penicillin, 50 μml−1 streptomycin. Stable transfectant clonal populations were selected using 800 μg/ml geneticin.
L1.2 recombinant cells expressing the receptor hCXCR3 were maintained in culture in RPMI 1640 (invitrogen), 5% Foetal Bovine Serum (invitrogen), 2 mM glutamine(invitrogen), 50 u/ml penicillin/streptomycin (invitrogen), at 37° C.-5% CO2—in an H2O saturated incubator. In order to stimulate the expression of the receptor, cells were incubated overnight with 5 mM butyric acid (Sigma)
This mix of cells/compounds was then incubated at 37° C.-5% CO2—in an H2O saturated incubator during 30 minutes. Cells were then dispensed as a drop on each corresponding wells of the chemotaxis system. Cell migration was then induced at 37° C.-5% CO2—in an H2O incubator during 4 hours. Filters were then removed and cells that had migrated were transferred in a black plate (Costar). The plates were stored overnight at −80° C. Cell migration ratio was calculated using the cyquant dye (Molecular Probes-C7026).

Experiment [2] concerns the target T1, CXCR3. Nature of the experiment: CXCR3 Ca2+ mobilization (FLIPR), stable hCXCR3-CHO cell line, I-TAC stimulated. The class given is cell-based. Further details: host or cells: CHO cells stably expressing hCXCR3. The conditions noted are these: hCXCR3-CHO cells, I-TAC 100 nM stimulated Ca2+ response; read-out: Ca-ITAC. The procedure, abridged:
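CHO cells stably expressing hCXCR3, grown 18 hours after plating, loaded with calcium indicator dye 60 minutes; compounds equilibrated 20 minutes at room temperature. Fluorescence change evoked by 100 nM I-TAC read on FLIPR; activity expressed as percent of I-TAC response without compound (100%).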
In general terms: A change in cytosolic calcium serves as a functional read-out for many receptors and channels.

For the compound `O=C(NCC1CC1)c1ccc(CN(Cc2ccccc2F)S(=O)(=O)c2ccc(Cl)cc2)cc1` [Example 29, 4-{[(4-Chloro-benzenesulfonyl)-(2-fluoro-benzyl)-amino]-methyl}-N-cyclopropyl methyl benzamide], the IC50 on CXCR3 [1] was found to be 0.51 µM; at CXCR3 [2], 1000 nM. As to `O=C(Cc1cccc(Cl)c1)Nc1ccc(CN(Cc2ccccn2)S(=O)(=O)c2ccc(Cl)cc2)cc1` [Example 160], the results for the IC50 at CXCR3 [1] and at CXCR3 [2] were 0.12 µM and 100 nM, respectively.

Take `O=S(=O)(c1ccc(Cl)cc1)N(Cc1ccc(-c2nnn[nH]2)cc1)Cc1cc2ccccc2cn1` [Example 76, 4-chloro-N-(isoquinolin-3-ylmethyl)-N-[4-(2H-tetrazol-5yl)benzyl]benzene sulfonamide]: the IC50 on CXCR3 [1] was determined as 0.911 µM; on CXCR3 [2], 300 nM.

For `CCOc1ccc(S(=O)(=O)N(Cc2ccc(C(=O)NC3(c4ccccc4)CC3)cc2)Cc2cccnc2)cc1` [Example 93], the IC50 on CXCR3 [1] is 0.04 µM; at CXCR3 [2], 30 nM. `CC(C)(C)OC(=O)N1C[C@@H]2[C@H](C1)[C@H]2NC(=O)c1ccc(CN(Cc2ccccn2)S(=O)(=O)c2ccc(C#N)cc2)cc1` [Example 96]: the IC50 on CXCR3 [1] stood at 0.01 µM; at CXCR3 [2], 10 nM. For `O=C(NS(=O)(=O)Cc1cccc([N+](=O)[O-])c1)c1ccc(CN(Cc2ccccn2)S(=O)(=O)c2ccc(Cl)cc2)cc1` [Example 50, N-(3-nitrophenylmethanesulfonyl)-4-{[[(4-chlorophenyl)sulfonyl](pyridin-2-yl-methyl)amino]methyl}benzamide] the same measures were 0.207 µM and 175 nM. As to `CS(=O)(=O)CCCS(=O)(=O)NC(=O)c1ccc(CN(Cc2ccccn2)S(=O)(=O)c2ccc(Cl)cc2)cc1` [Example 53, N-(1-methylsulfonyl-3-propylsulfonyl)-4-{[[(4-chlorophenyl)sulfonyl](pyridin-2-yl-methyl)amino]methyl}benzamide], the IC50 on CXCR3 [1] came out at 1.32 µM; at CXCR3 [2] it was 1700 nM. On to `O=S(=O)(c1ccc(Cl)cc1)N(Cc1ccc(-c2nnn[nH]2)cc1)Cc1ccccc1Cl` [Example 63, 4-chloro-N-(2-chlorobenzyl)-N-[4-(2H-tetrazol-5-yl)benzyl]benzenesulfonamide], for which the IC50 on CXCR3 [1] was 0.548 µM; on CXCR3 [2], 415 nM. For the compound `O=C(NS(=O)(=O)c1cccc(F)c1)c1ccc(CN(Cc2ccccn2)S(=O)(=O)c2ccc(Cl)cc2)cc1` [Example 51, N-(3-fluorobenzenesulfonyl)-4-{[[(4-chlorophenyl)sulfonyl](pyridin-2-yl-methyl)amino]methyl}benzamide], the IC50 stood at 0.339 µM on CXCR3 [1] and 131 nM at CXCR3 [2]. As to `CC(CNC(=O)c1ccc(CN(Cc2ccccn2)S(=O)(=O)c2ccc(C#N)cc2)cc1)c1ccccc1` (stereo not shown) [Example 98], the IC50 worked out at 0.16 µM on CXCR3 [1] and 400 nM at CXCR3 [2]. The like results for `N#Cc1ccc(S(=O)(=O)N(Cc2ccc(C(=O)NCCc3cccc(Cl)c3)cc2)Cc2ccccn2)cc1` [Example 97] were, in that order, 0.05 µM and 70 nM.

For `O=C(NS(=O)(=O)Cc1cccc([N+](=O)[O-])c1)c1ccc(CN(Cc2ccccc2)S(=O)(=O)c2ccc(Cl)cc2)cc1` [Example 15, 4-({benzyl[(4-chlorophenyl)sulfonyl]amino}methyl)-N-[(3-nitrobenzyl)sulfonyl]benzamide], the IC50 at CXCR3 [1] is 2.42 µM. For `O=C(NCc1cccc(Cl)c1)c1ccc(CN(Cc2ccccc2)S(=O)(=O)c2ccc(Cl)cc2)cc1` [Example 1, 4-({benzyl[(4-chlorophenyl)sulfonyl]amino}methyl)-N-(3-chlorobenzyl)benzamide], the IC50 on CXCR3 [1] came to 1.29 µM. Consider `O=S(=O)(c1ccc(Cl)cc1)N(Cc1ccc(Cl)cc1)Cc1ccc(-c2nnn[nH]2)cc1` [Example 25, 4-chloro-N-(4-chlorobenzyl)-N-[4-(1H-tetrazol-5-yl)benzyl]benzenesulfonamide], for which, on CXCR3 [1], the IC50 is 0.882 µM.

These data come from US20110028509A1, “Sulfonamides” (MERCK SERONO SA, priority 2008, published 2011).
